The record followed here is patent US20140057895A1, “INDAZOLE- AND PYRROLOPYRIDINE-DERIVATIVE AND PHARMACEUTICAL USE THEREOF” (priority 2011, published 2014).

Assay [1] has as its target T1, 5-HT4 receptor (Cavia porcellus, UniProt O70528).
T1 construct: striatum was isolated which was cryopreserved at −80° C. until use; from tissue; host or cells: guinea pig (Slc-Hartley) striatum membranes
Briefly: Test Example 1: Serotonin 4 (5-HT4) receptor binding assay, [3H]-GR113808, guinea pig striatum membranes (Table 96). As to conditions: Guinea pig 5-HT4 receptor binding assay, [3H]-GR113808, striatum membranes; mean value of each group. Here is the method: The 5-HT4 receptor binding assay and preparations of receptor membrane preparations herein were carried out according to a method of Grossman et al. [see, British J. Pharmacol., (1993) 109, 618].
Slc-Hartley guinea pigs (body weight 300 g to 400 g) were decapitated to remove brain rapidly, and striatum was isolated which was cryopreserved at −80° C. until use. To the obtained tissues were added fifteen fold of Hepes buffer (50 mM, pH 7.4, 4° C.), and the mixture was homogenized by Teflon (trademark) homogenizer and centrifuged at 48,000×g (4° C.) for 15 minutes. To the resulting precipitate was added Hepes buffer (1 ml) to 30 mg by wet weight of tissues, and the mixture was suspended to give receptor membrane preparations.
To an assay tube were added 0.1 nM [^3H]-GR113808 {chemical name: [1-[2-(methylsulfonylamino)ethyl]-4-piperidinyl]methyl 1-methylindole-3-carboxylate}, receptor membrane preparations, and Hepes buffer (50 mM, pH 7.4, 4° C., 1 ml) containing test compounds or 30 μM serotonin; and the mixture was incubated at 37° C. for 30 minutes. On quenching the reaction, the mixture was rapidly filtered on whatman GF/B filter, which was presoaked in 0.1% polyethyleneimine for 1 hour, by using Brandel cell Harvester, and washed with ice-cooled 50 mM Tris-HCl (pH 7.7, 4 ml) three times. To the filter after filtration was added a liquid scintillator (Ecoscint), and then a radioactivity was determined by a liquid scintillation counter.
50% Inhibition concentrations (IC50) were determined from inhibition rates of test compounds to specific bindings which were obtained by subtracting nonspecific bindings from total binding amounts of [^3H]-GR113808.
(§1) In the following table, the compounds used in the test are shown in numbers which correspond to the Example numbers above where the preparations of the compounds are described.

Assay [2] concerns the target T2, human 5-HT4b receptor (Homo sapiens, UniProt Q13639).
T2 construct: expressed in transfected cells; host or cells: CHO cells (G418 selection)
Briefly: Test Example 2: Serotonin 4 (5-HT4) receptor agonist activity assay, cAMP HTRF in CHO cells (Table 97). The assay is classed as cell-based. The conditions noted are these: cAMP in CHO cells expressing human 5-HT4b receptor, mean value; for Emax: 0.25 h, intrinsic activity, maximal activity of 5-HT defined as 100%, read-out: IA (%); for EC50: concentration showing 50% of IA. The method, then: The cAMP measurement test used herein was carried out by using CISBIO HTRF (trademark) cAMP Hirange kit according to the manufacturer's instructions attached therewith.
CHO cells expressing human 5-HT4b receptor were incubated in Medium 1 [DMEM/1% NEAA, 1% penicillin/streptomycin (P/S), 0.2 mg/mL GENETICIN (G418), 10% FBS] at 37° C. under 5% CO2 condition. Then, the cells were put into Medium 2 (DMEM/10000 cut FBS, G-418, P/S, NEAA) for 1 to 2 hours, and collected by treating with trypsin containing EDTA. The collected cells were suspended in Assay Buffer 1 [100 mM Hanks/HEPES buffer (pH 7.4)], the suspended cells were mixed with the testing compound on 384-well plates, and the cells were incubated at 31° C. for 15 minutes. To the cells were added cAMP-cryptate solution and cAMP-d2 solution, and they were incubated at room temperature for 1 hour. Then, time-resolved fluorescence was measured by En Vision (excitation wavelength: 330 nm, fluorescence wavelength: 620/665 nm). An intrinsic activity of the compound [IA (%)] and a concentration showing 50% of IA [EC50 (nM)] were calculated from the obtained results. In particular, the intrinsic activity (IA) was calculated on the basis of the maximal activity of 5-HT (measured from 10^−11 M to 10^−7 M) defined as 100%.
as §1
In general terms: TR-FRET usually uses a lanthanide donor and a delayed reading to cut background.

Some results are limits rather than exact numbers.

As a reminder, the IC50 is the concentration that gives 50% inhibition. As usually defined, the EC50 is the concentration that produces a half-maximal response.

T2 sequence (Q13639 whole entry): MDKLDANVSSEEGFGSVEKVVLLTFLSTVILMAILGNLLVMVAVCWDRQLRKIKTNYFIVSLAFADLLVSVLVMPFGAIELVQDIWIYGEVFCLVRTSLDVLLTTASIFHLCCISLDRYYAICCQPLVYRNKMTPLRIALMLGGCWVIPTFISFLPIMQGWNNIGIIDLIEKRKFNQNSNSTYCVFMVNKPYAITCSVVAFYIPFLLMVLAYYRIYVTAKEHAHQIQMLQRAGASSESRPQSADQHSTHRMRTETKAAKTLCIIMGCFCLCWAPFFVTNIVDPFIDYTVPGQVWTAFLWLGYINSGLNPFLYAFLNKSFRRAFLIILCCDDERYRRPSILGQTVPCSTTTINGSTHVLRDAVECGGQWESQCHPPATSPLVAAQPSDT
T1 sequence (O70528 whole entry): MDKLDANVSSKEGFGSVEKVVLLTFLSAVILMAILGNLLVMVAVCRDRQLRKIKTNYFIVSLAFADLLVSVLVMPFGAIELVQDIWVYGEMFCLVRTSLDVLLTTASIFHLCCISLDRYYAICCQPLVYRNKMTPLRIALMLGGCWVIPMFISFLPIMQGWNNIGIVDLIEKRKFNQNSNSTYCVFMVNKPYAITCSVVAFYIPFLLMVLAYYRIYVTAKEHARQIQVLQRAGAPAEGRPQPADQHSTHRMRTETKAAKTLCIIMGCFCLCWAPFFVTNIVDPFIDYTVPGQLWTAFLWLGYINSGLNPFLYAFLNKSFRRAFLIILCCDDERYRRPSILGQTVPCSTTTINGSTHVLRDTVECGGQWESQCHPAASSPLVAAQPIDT

Consider `CC(=O)N1CCC(N2CCC(c3nc(-n4nc(C(C)C)c5cccc(F)c54)no3)CC2)CC1.Cl` [Example 232, 1-(4-{3-[7-fluoro-3-(propan-2-yl)-1H-indazol-1-yl]-1,2,4-oxadiazol-5-yl}-1,4′-bipiperidin-1′-yl)ethanone hydrochloride], for which the IC50 in assay [1] is under 20 nM. In addition, in assay [2], the Emax is 95% and the 50% effective concentration (EC50) was determined as 2.6 nM.
In assay [1], `CC(C)c1nn(-c2noc(C3CCN(C4CCN(C(=O)CO)CC4)CC3)n2)c2c(F)cccc12` [Example 242, 1-(4-{3-[7-fluoro-3-(propan-2-yl)-1H-indazol-1-yl]-1,2,4-oxadiazol-5-yl}-1,4′-bipiperidin-1′-yl)-2-hydroxyethanone] displayed an IC50 of under 20 nM. For the same molecule, in assay [2], the Emax came out at 88% and the EC50 was determined as 2.2 nM.
